For one test, the system named is NIH:OVCAR-3. Kind of test: MTS cytotoxicity assay. The class given is cell-based. Particulars: Ep-CAM-positive NIH:OVCAR-3, MTS, 5 days. The protocol:
The MTS assay used to measure potency was conducted using standard technique known in the art, and as more fully described below in Example 8. […] In the case of VB6-845-CL-de-bouganin, the potency was measured at 1 to 2 nM for CAL 27 and 0.6 to 0.7 nM versus NIH:OVCAR-3.
(§1) The MTS assay was preformed using standard techniques known in the art. More particularly, 50 microlitres of cells (2×10^4 cells/ml) were seeded per well and plates were incubated at 37° C. under 5% CO2 for 2 hr. Then 50 microlitres of spiked drug (i.e. construct to be tested or control) was added to the culture medium at increasing concentrations. Culture medium, with or without cells, was used as positive and negative controls, respectively. The plates were left at 37° C. under 5% CO2 for 5 days. At day 5, the inhibition of cell proliferation was evaluated by adding 20 microlitres of MTS reagent (Promega, Cat# G5430). The plates were further incubated at 37° C. under 5% CO2 for 2 hr and ODs were read at 490 nm using the plate reader spetrophotometer. Background values were subtracted from the sample values obtained for each concentration and the results were expressed as a percent of viable cells. The IC50 values for each drug were calculated for each cell line.
On the technique in general: Tetrazolium assays rely on reduction of a dye to a coloured formazan, in cell work by metabolically active cells.

The test system of a further test is A-375. Put plainly: MTS cytotoxicity assay. In kind it is cell-based. The settings on record: Ep-CAM-negative A-375, MTS, 5 days. The protocol: as §1
The next test concerns DAUDI. Kind of test: MTS cytotoxicity assay. The class given is cell-based. The settings on record: Ep-CAM-negative DAUDI, 5 days. The protocol:
as §1

In a further test the test system is HMEC. Put plainly: MTS cytotoxicity assay. In kind it is cell-based, human. Particulars: Ep-CAM-negative HMEC, 5 days. The protocol:
The tumour cell lines used in this study were purchase from ATCC and were propagated following ATCC's recommendations except for the cell lines C-41, TOV-112D which were grown in RPMI 1640 or DMEM supplemented with 10% FCS, respectively. Tumor cells were harvested at 60-70% confluence with viability over 90%. The human normal mammary epithelial cells (HMEC) were purchased from CAMBREX and maintained in specified media according to the procedure provided by CAMBREX. The cells were harvested at 70% confluence with viability over 90%.
as §1

Test [1] deals with PBMCs (peripheral blood mononuclear cells) from naive donors. Put plainly: Naive human T-cell proliferation assay (3H-thymidine incorporation, stimulation index). The settings on record: for presence of T cell epitope: compilation of 20 donors, 1 μM and 5 μM; for responsive donors: of 20 donor PBMC samples; for T cell proliferation (in words): compared with peptide 44. The class given is cell-based. The protocol: Accordingly, in the present studies, 89 synthetic 15-mer peptides (as listed in Table 1) were used in T-cell proliferation assays with PBMCs (peripheral blood mononuclear cells) from naive donors (i.e. no known sensitization to bouganin). 20 donor PBMC samples were selected to achieve an optimal coverage of MHC class II allotypes. PBMCs were stimulated with individual peptides in triplicate cultures for 7 days before proliferation was assessed by ^3H-thymidine incorporation. All peptides were diluted at two different concentrations: 1 μM and 5 μM. The stimulation indices (SI) were calculated as the amount of ^3H incorporated into the cells, divided by the amount of ^3H incorporated in mock-stimulated controls.
The peptides were used in T-cell proliferation assays with PBMCs (peripheral blood mononuclear cells) from naive donors (i.e. no known sensitization to bouganin). 20 donor PBMC were selected to get an optimal coverage of MHC class II allotypes. The allotypic coverage is in excess of 85%.
PBMCs were stimulated with individual peptides in triplicate cultures for 7 days before proliferation was assessed by ^3H-thymidine (^3H-Thy) incorporation. All peptides were tested at two different concentrations (1 μM and 5 μM). Stimulation indices (S.I.) were calculated as the amount of ^3H incorporated, divided by the amount of ^3H incorporated in mock-stimulated control cells.
Buffy coats from human blood stored for less than 12 hours were obtained from the National Blood Service (Addenbrooks Hospital, Cambridge, UK). Ficoll-paque was obtained from Amersham Pharmacia Biotech (Amersham, UK). Serum free AIM V media for the culture of primary human lymphocytes and containing L-glutamine, 50 μg/ml streptomycin, 10 μg/ml gentomycin and 0.1% human serum albumin was from Gibco-BRL (Paisley, UK). Synthetic peptides were obtained from Eurosequence (Groningen, The Netherlands) and Babraham Technix (Cambridge, UK).
Erythrocytes and leukocytes were separated from plasma and platelets by gentle centrifugation of buffy coats. The top phase (containing plasma and platelets) was removed and discarded. Erythrocytes and leukocytes were diluted 1:1 in phosphate buffered saline (PBS) before layering onto 15 ml ficoll-paque (Amersham Pharmacia, Amersham UK). Centrifugation was done according to the manufacturers recommended conditions and PBMCs were harvested from the serum+PBS/ficoll paque interface. PBMCs were mixed with PBS (1:1) and collected by centrifugation. The supernatant was removed and discarded and the PBMC pellet resuspended in 50ml PBS. Cells were again pelleted by centrifugation and the PBS supernatant discarded. Cells were resuspended using 50 ml AIM V media and at this point counted and viability assessed using trypan blue dye exclusion. Cells were again collected by centrifugation and the supernatant discarded. Cells were resuspended for cryogenic storage at a density of 3×10^7 per ml. The storage medium was 90% (v/v) heat inactivated AB human serum (Sigma, Poole, UK) and 10% (v/v) DMSO (Sigma, Poole, UK). Cells were transferred to a regulated freezing container (Sigma) and placed at −70° C. overnight. When required for use, cells were thawed rapidly in a water bath at 37° C. before transferring to 10ml pre-warmed AIM V medium.
PBMC were stimulated with protein and peptide antigens in a 96 well flat bottom plate at a density of 2×10^5 PBMC per well. PBMC were incubated for 7 days at 37° C. before pulsing with ^3H-Thy (Amersham-Pharmacia, Amersham, UK). […] C-32=sequence […] from Flu haemagglutinin residues 307-319 (SEQ ID NO:127). C-49=sequence […] from Chlamydia HSP 60 (SEQ ID NO:128).
Peptides were dissolved in DMSO to a final concentration of 10 mM, these stock solutions were then diluted 1/500 in AIM V media (final concentration 20 μM). Peptides were added to a flat bottom 96 well plate to give a final concentration of 1 and 5 μM in 100 μl. […]
(In general: Uptake of a labelled nucleoside into DNA is a usual measure of proliferation.)

Bounds are passed on as bounds.

On to `Cc1c(N)nc([C@H](CC(N)=O)NC[C@H](N)C(N)=O)nc1C(=O)N[C@H](C(=O)N[C@H](C)[C@@H](O)[C@H](C)C(=O)N[C@H](C(=O)NCCc1nc(-c2nc(C(=O)NCCCNCCCCN)cs2)cs1)[C@@H](C)O)[C@@H](O[C@@H]1O[C@@H](CO)[C@@H](O)[C@H](O)[C@@H]1O[C@@H]1O[C@H](CO)[C@@H](O)[C@H](OC(N)=O)[C@@H]1O)c1cnc[nH]1` [Bleomycin A5], for which the IC50 in the test with NIH:OVCAR-3 turned out to be 150 nM; in the test with A-375 it was 290 nM; in the test with DAUDI, 130 nM; with HMEC, 1000 nM.

With `N.N.O=C([O-])C1(C(=O)[O-])CCC1.[Pt+2]` [Carboplatin], the IC50 with NIH:OVCAR-3, in the test with A-375, with DAUDI and in the test on HMEC was more than 1000 nM in each case.

Consider `O=C(O)CCCc1ccc(N(CCCl)CCCl)cc1` [Chlorambucil], for which the IC50 is more than 1000 nM with NIH:OVCAR-3 (Homo sapiens, 120 h); more than 1000 nM in the test with A-375 (Homo sapiens, 120 h); more than 1000 nM with DAUDI (Homo sapiens, 120 h); more than 1000 nM in the test with HMEC (Homo sapiens, 120 h).

Consider `N.N.[Cl][Pt][Cl]` [Cisplatin], for which the IC50 with NIH:OVCAR-3, in the test on A-375, in the test with DAUDI and with HMEC was more than 1000 nM in each case.

Consider `O=P1(N(CCCl)CCCl)NCCCO1` (centres unmarked) [Cyclophosphamide], for which the IC50 in the test on NIH:OVCAR-3 (Homo sapiens, 120 h) was more than 1000 nM; in the test on A-375 (Homo sapiens, 120 h), more than 1000 nM; in the test on DAUDI (Homo sapiens, 120 h), more than 1000 nM; in the test with HMEC (Homo sapiens, 120 h) it was more than 1000 nM.

Consider `COc1cccc2c1C(=O)c1c(O)c3c(c(O)c1C2=O)C[C@@](O)(C(=O)CO)C[C@@H]3O[C@H]1C[C@H](N)[C@H](O)[C@H](C)O1` [Doxorubicin], for which the IC50 in the test with NIH:OVCAR-3 (Homo sapiens, 120 h) stood at 3 nM; in the test with A-375 (Homo sapiens, 120 h) it was 2.8 nM; in the test on HMEC (Homo sapiens, 120 h), 16 nM.

As to `COc1cc([C@@H]2c3cc4c(cc3[C@@H](O[C@@H]3O[C@@H]5CO[C@@H](C)O[C@H]5[C@H](O)[C@H]3O)[C@H]3COC(=O)[C@H]23)OCO4)cc(OC)c1O` [Etoposide], the IC50 with NIH:OVCAR-3 (Homo sapiens, 120 h) was found to be 210 nM; in the test with A-375 (Homo sapiens, 120 h), 280 nM; with DAUDI (Homo sapiens, 120 h), 1.7 nM; in the test with HMEC (Homo sapiens, 120 h), 600 nM.

On to `O=c1[nH]cc(F)c(=O)[nH]1` [Fluorouracil], for which the IC50 was more than 1000 nM in the test on NIH:OVCAR-3 (Homo sapiens, 120 h); more than 1000 nM in the test on A-375 (Homo sapiens, 120 h); more than 1000 nM with DAUDI (Homo sapiens, 120 h); more than 1000 nM in the test on HMEC (Homo sapiens, 120 h).

Consider `CCc1c2c(nc3ccc(OC(=O)N4CCC(N5CCCCC5)CC4)cc13)-c1cc3c(c(=O)n1C2)COC(=O)[C@]3(O)CC` [Irinotecan], for which the IC50 with NIH:OVCAR-3 (Homo sapiens, 120 h) is 180 nM; in the test on A-375 (Homo sapiens, 120 h), 900 nM; in the test with DAUDI (Homo sapiens, 120 h) it was 190 nM; in the test on HMEC (Homo sapiens, 120 h), 1000 nM.

For the molecule “AKVDRKDLELGVYKL [peptide 41, bouganin 15-mer peptide, first amino acid 121]”, in test [1], the “presence of T cell epitope” value was “T cell epitopes”. Besides, the “S.I. (stimulation index)” value is given as 3.6 in test [1] (donor 4, peptide at 5 μM); 4.9 in test [1] (donor 5, peptide at 5 μM); 2.1 in test [1] (donor 10, peptide at 5 μM); 2.0 in test [1] (donor 11, peptide at 5 μM). Further, the responsive donors entry in test [1] is “four”.

“DLELGVYKLEFSIEA [compound 43, bouganin 15-mer peptide, first amino acid 127]”: the “T cell proliferation (in words)” value in test [1] is “lower level T cell proliferation”.

In the case of “EIAKFFLIVIQMVSE [peptide 51, bouganin 15-mer peptide, first amino acid 151]”, the “S.I. (stimulation index)” value in test [1] (donor 14) is more than 1.9.

As to “IVEDLDGDELEILEP [peptide 88, 15-mer peptide of the unprocessed form of bouganin, first amino acid 261]”, the “presence of T cell epitope” value in test [1] was “T cell epitopes”.

With “LGVYKLEFSIEAIHG [peptide 44, bouganin 15-mer peptide, first amino acid 130]”, in test [1], the “presence of T cell epitope” value is “T cell epitopes” and the responsive donors entry is “two”. Besides, the “S.I. (stimulation index)” value in test [1] (donor 4) is reported as 3.5. In addition, the “S.I. (stimulation index)” value in test [1] (donor 11) is given as 2.3.

Turning to “NGQEIAKFFLIVIQM [peptide 50, bouganin 15-mer peptide, first amino acid 148]”, in test [1], the “presence of T cell epitope” value is “T cell epitopes” and the responsive donors stood at 2. Besides, the “S.I. (stimulation index)” value in test [1] (donor 4) is recorded as 2.9. For the same molecule, in test [1] (donor 14), the “S.I. (stimulation index)” value worked out at 2.0.

With “YKLEFSIEAIHGKTI [compound 45, bouganin 15-mer peptide, first amino acid 133]”, the “T cell proliferation (in words)” value in test [1] is “lower level T cell proliferation”.

B1: VB6-845: cytotoxin: Fab version of an anti-Ep-CAM scFv antibody linked to Bou156 at the C-terminus of the CH domain via a furin linker (protein)
chain 1: EVQLVQSGPGLVQPGGSVRISCAASGYTFTNYGMNWVKQAPGKGLEWMGWINTYTGESTYADSFKGRFTFSLDTSASAAYLQINSLRAEDTAVYYCARFAIKGDYWGQGTLLTVSSASTKGPSVFPLAPSSKSTSGGTAALGCLVKDYFPEPVTVSWNSGALTSGVHTFPAVLQSSGLYSLSSVVTVPSSSLGTQTYICNVNHKPSNTKVDKKVEPKSCTRHRQPRGWEQLYNTVSFNLGEAYEYPTFIQDLRNELAKGTPVCQLPVTLQTIADDKRFVLVDITTTSKKTVKVAIDVTDVYVVGYQDKWDGKDRAVFLDKVPTVATSKLFPGVTNRVTLTFDGSYQKLVNAAKADRKALELGVNKLEFSIEAIHGKTINGQEAAKFFLIVIQMVSEAARFKYIETEVVDRGLYGSFKPNFKVLNLENNWGDISDAIHKSSPQCTTINPALQLISPSNDPWVVNKVSQISPDMGILKFKSSK
chain 2: HHHHHHDIQMTQSPSSLSASVGDRVTITCRSTKSLLHSNGITYLYWYQQKPGKAPKLLIYQMSNLASGVPSRFSSSGSGTDFTLTISSLQPEDFATYYCAQNLEIPRTFGQGTKVELKRTVAAPSVFIFPPSDEQLKSGTASVVCLLNNFYPREAKVQWKVDNALQSGNSQESVTEQDSKDSTYSLSSTLTLSKADYEKHKVYACEVTHQGLSSPVTKSFNRGEC
In the case of B1, the IC50 in the test with A-375 was more than 1000 nM; in the test with DAUDI, more than 1000 nM; in the test with HMEC, 220 nM.

One may read the IC50 as the concentration that gives 50% inhibition. Low readings indicate higher potency, high ones lower potency.
